Test results reported in EPA's ToxValDB 9.5.
Values joined by “and” are separate entries in the source; they are usually repeats but may differ in a detail not shown here. Equal entries are not always repeated. Blank lines part the entries; values can stand above or below the molecule they belong to.

Assays:
Rattus norvegicus [1] = test system: Rattus norvegicus
Rattus norvegicus [2] = conditions: subchronic; duration: 42 days; oral; gavage; M; CD(SD); Urinalysis: pH decrease(trend) + Histopathology: Stomach-Hyperplasia, squamous, limiting ledge
[3] = subchronic, duration: 13 weeks, oral, diet, F, Crl:CD(SD) BR, Blood: Hematocrit (HCT) + Blood: Mean Corpuscular Volume (MCV) + Brain: Brain Weight, Absolute + Kidney: Urea Nitrogen + Liver: Cholesterol…
[4] = subchronic, duration: 13 weeks, oral, diet, F, Crl:CD(SD) BR, Blood: Red Blood Cell (RBC) + Kidney: Kidney Weight, Relative + Liver: Hepatocellular Hypertrophy, Centrilobular + Liver: Liver Weight, …
[5] = subchronic, duration: 13 weeks, oral, diet, F, Sprague-Dawley, Endocrine: Adrenal: Adrenal Gland Weight, Absolute + Endocrine: Adrenal: Adrenal Gland Weight, Relative to Brain + Hepatic: Liver: Liver …
[6] = subchronic, duration: 13 weeks, oral, diet, F, Sprague-Dawley, Hepatic: Liver: Total Bilirubin (TBILI) + Immune: Blood: Monocytes %
[7] = subchronic, duration: 13 weeks, oral, diet, M, Crl:CD(SD) BR, Blood: Calcium (CA), Blood + Blood: Globulin (G), Blood + Brain: Brain Weight, Relative + Kidney: Kidney Weight, Relative + Liver: …
[8] = subchronic, duration: 13 weeks, oral, diet, M, Crl:CD(SD) BR, Blood: Glucose (GLU), Blood + Blood: Hematocrit (HCT) + Kidney: Kidney Weight, Absolute + Kidney: Kidney Weight, Relative to Brain + Kidney…
[9] = subchronic, duration: 13 weeks, oral, diet, M, Sprague-Dawley, Cardiovascular: Heart: Heart, Degeneration/Necrosis + Endocrine: Adrenal: Adrenal Gland Weight, Absolute + Endocrine: Thyroid/Parathyroid: …
[10] = subchronic, duration: 13 weeks, oral, diet, M, Sprague-Dawley, Endocrine: Adrenal: Adrenal Gland Weight, Relative + Endocrine: Adrenal: Adrenal Gland Weight, Relative to Brain + Endocrine: Adrenal: …
[11] = subchronic, duration: 13 weeks, oral, diet, M, Sprague-Dawley, Immune: Blood: Basophils
[12] = chronic, duration: 123 days, oral, gavage, F, Wistar, Heart: Heart Weight, Relative
[13] = chronic, duration: 123 days, oral, gavage, F, Wistar, Kidney: Kidney, Cortical Tubular Dilation, Multifocal + Whole Body: Body Weight Change
[14] = reproduction developmental, duration: 90 days, oral, gavage, M, Crl:WI (Han), generation: P0, P0: General Toxicity: Whole Body: Body Weight Change + P0: General Toxicity: Whole Body: Body Weight, Absolute + P0: General Toxicity: Whole…
[15] = reproduction developmental, duration: 123 days, oral, gavage, F, Crl:WI (Han), generation: P0, P0: General Toxicity: Whole Body: Body Weight Change + P0: General Toxicity: Whole Body: Body Weight, Absolute + P0: General Toxicity: Whole…
[16] = subchronic, duration: 90 days, oral, gavage, M, Wistar, Kidney: Blood Urea Nitrogen (BUN), Blood + Kidney: Kidney, Cortical Tubular Dilation, Multifocal + Whole Body: Body Weight Change

SMILES: FC(F)(F)N1C(F)(F)C(F)(F)OC(F)(F)C1(F)F [Perfluoro(N-methylmorpholine)]
- NEL (Rattus norvegicus [1]; subchronic, duration: 13 weeks, inhalation, M/F, Sprague-Dawley, Blood: Hematology, Unspecified + Eye: Ophthalmology, Unspecified + Multi-organ: Clinical Chemistry, Unspecified + Multi-organ: …): 607000 mg/m3
- NEL (Rattus norvegicus [1]; subchronic, duration: 30 days, oral, gavage, M/F, Crl:CD(SD) BR, Blood: Hematology, Unspecified + Blood: Red Cell Morphology + Multi-organ: Clinical Chemistry, Unspecified + Multi-organ: Histopathology, …): 2000 mg/kg-day

- NEL (Rattus norvegicus [1]; chronic, duration: 14 weeks, oral, diet, M/F, Crl:CD(SD) BR, Eye: Ophthalmology, Unspecified + Whole Body: Clinical Observations): 7.8 mg/kg-day and 7.27 mg/kg-day
- NEL (Rattus norvegicus [1]; subchronic, duration: 13 weeks, oral, diet, F, Crl:CD(SD) BR, Adrenal: Adrenal Cortex Histopathology + Adrenal: Adrenal Gland Weight, Absolute + Adrenal: Adrenal Gland Weight, Relative + Adrenal: …): 9.6 mg/kg-day and 7.7 mg/kg-day
- LEL (Rattus norvegicus [1]; [3]): 9.6 mg/kg-day and 7.7 mg/kg-day
- NEL (Rattus norvegicus [1]; [3]): 2.88 mg/kg-day and 2.59 mg/kg-day
- NEL (Rattus norvegicus [1]; subchronic, duration: 13 weeks, oral, diet, M, Crl:CD(SD) BR, Adrenal: Adrenal Cortex Histopathology + Adrenal: Adrenal Gland Weight, Absolute + Adrenal: Adrenal Gland Weight, Relative + Adrenal: …): 6.84 mg/kg-day and 9.6 mg/kg-day
- LEL (Rattus norvegicus [1]; [7]): 2.04 mg/kg-day and 2.88 mg/kg-day
- NEL (Rattus norvegicus [1]; [7]): 0.203 mg/kg-day and 0.288 mg/kg-day
- LEL (Rattus norvegicus [1]; [8]): 6.84 mg/kg-day and 9.6 mg/kg-day
- NEL (Rattus norvegicus [1]; [8]): 2.04 mg/kg-day and 2.88 mg/kg-day
SMILES: CN(CCO)S(=O)(=O)C(F)(F)C(F)(F)C(F)(F)C(F)(F)C(F)(F)C(F)(F)C(F)(F)C(F)(F)F [N-Methyl-N-(2-hydroxyethyl)perfluorooctanesulfonamide]
- LEL (Rattus norvegicus [1]; [4]): 2.88 mg/kg-day and 2.59 mg/kg-day
- NEL (Rattus norvegicus [1]; [4]): 0.288 mg/kg-day and 0.24 mg/kg-day
- LEL (Rattus norvegicus [1]; subchronic, duration: 13 weeks, oral, diet, F, Crl:CD(SD) BR, Brain: Brain Weight, Relative + Whole Body: Body Weight Change): 0.288 mg/kg-day and 0.24 mg/kg-day
- NOAEL (Rattus norvegicus [1]; subchronic, duration: 13 weeks, oral, diet, F, Sprague-Dawley, Cardiovascular: Aorta: Aorta Histopathology + Cardiovascular: Heart: Heart, Degeneration/Necrosis + Endocrine: Adrenal: Adrenal Cortex …): 0.203 mg/kg-day
- LOAEL (Rattus norvegicus [1]; [5]): 6.84 mg/kg-day
- NOAEL (Rattus norvegicus [1]; [5]): 2.04 mg/kg-day
- NOAEL (Rattus norvegicus [1]; subchronic, duration: 13 weeks, oral, diet, F, Sprague-Dawley, Endocrine: Adrenal: Adrenal Medulla Histopathology + Endocrine: Thyroid/Parathyroid: Thyroid/Parathyroid Gland Weight, Relative to Brain + …): 6.84 mg/kg-day
- LOAEL (Rattus norvegicus [1]; subchronic, duration: 13 weeks, oral, diet, F, Sprague-Dawley, General Toxicity: Whole Body: Body Weight Change + General Toxicity: Whole Body: Body Weight, Absolute + Hematologic: Blood: Inorganic …): 0.203 mg/kg-day
- LOAEL (Rattus norvegicus [1]; [6]): 19.2 mg/kg-day
- NOAEL (Rattus norvegicus [1]; [6]): 1.92 mg/kg-day
- LEL (Rattus norvegicus [1]; subchronic, duration: 13 weeks, oral, diet, M, Crl:CD(SD) BR, Whole Body: Body Weight Change): 0.203 mg/kg-day and 0.288 mg/kg-day
- LOAEL (Rattus norvegicus [1]; subchronic, duration: 13 weeks, oral, diet, M, Sprague-Dawley, Cardiovascular: Aorta: Aorta Histopathology + Cardiovascular: Heart: Heart, Degeneration/Necrosis + Endocrine: Adrenal: Adrenal Cortex …): 0.203 mg/kg-day
- NOAEL (Rattus norvegicus [1]; subchronic, duration: 13 weeks, oral, diet, M, Sprague-Dawley, Cardiovascular: Aorta: Aorta Histopathology + Endocrine: Adrenal: Adrenal Cortex Histopathology + Endocrine: Pituitary: Pituitary Gland …): 6.84 mg/kg-day
- LOAEL (Rattus norvegicus [1]; [9]): 6.84 mg/kg-day
- NOAEL (Rattus norvegicus [1]; [9]): 2.04 mg/kg-day
- LOAEL (Rattus norvegicus [1]; [10]): 2.04 mg/kg-day
- NOAEL (Rattus norvegicus [1]; [10]): 0.203 mg/kg-day
- LOAEL (Rattus norvegicus [1]; subchronic, duration: 13 weeks, oral, diet, M, Sprague-Dawley, Hematologic: Blood: Hematocrit (HCT) + Hematologic: Blood: Mean Corpuscular Hemoglobin Concentration (MCHC) + Hepatic: Liver: Aspartate …): 0.203 mg/kg-day
- LOAEL (Rattus norvegicus [1]; [11]): 19.2 mg/kg-day
- NOAEL (Rattus norvegicus [1]; [11]): 1.92 mg/kg-day

SMILES: O=[N+]([O-])c1ccc(Oc2ccc(Cl)cc2Cl)cc1 [Nitrofen]
- NOEL (Rattus norvegicus [1]; chronic, oral, diet, M, Wistar, heart: Heart weight + spleen: Spleen weight): 116 mg/kg-day
- LOEL (Rattus norvegicus [1]; chronic, oral, diet, M, Wistar, kidney: Kidney weight + liver: Liver weight + testes: Testes weight): 116 mg/kg-day
- NOEL (Rattus norvegicus [1]; chronic, oral, gavage, F, Wistar, heart: Heart weight + kidney: Kidney weight + liver: Liver weight): 127 mg/kg-day
- LOEL (Rattus norvegicus [1]; chronic, oral, gavage, F, Wistar, spleen: Spleen weight): 127 mg/kg-day
- LOEL (Rattus norvegicus [1]; subchronic, oral, diet, F, Wistar, heart: Heart weight + kidney: Kidney weight): 1280 mg/kg-day
- LOEL (Rattus norvegicus [1]; subchronic, oral, diet, F, Wistar, liver: Liver weight): 10 mg/kg-day
- NOEL (Rattus norvegicus [1]; subchronic, oral, diet, F, Wistar, spleen: Spleen weight): 1280 mg/kg-day
- LOEL (Rattus norvegicus [1]; subchronic, oral, diet, M, Sprague-Dawley, Albumin + Cholesterol + Globulin + Glucose + Terminal body weight + Total protein): 186 mg/kg-day
- LOEL (Rattus norvegicus [1]; subchronic, oral, diet, M, Sprague-Dawley, liver: Relative liver weight + Relative kidney weight + testes: Relative Testes weight): 37 mg/kg-day
- LOEL (Rattus norvegicus [1]; subchronic, oral, diet, M, Wistar, heart: Heart weight + spleen: Spleen weight): 1150 mg/kg-day
- LOEL (Rattus norvegicus [1]; subchronic, oral, diet, M, Wistar, kidney: Kidney Weight + testes: Testes weight): 230 mg/kg-day
- LOEL (Rattus norvegicus [1]; subchronic, oral, diet, M, Wistar, liver: Liver weight): 46 mg/kg-day

- NEL (Rattus norvegicus [1]; chronic, duration: 123 days, oral, gavage, F, Wistar, Blood: Albumin/Globulin (A/G) Ratio + Blood: Basophils + Blood: Calcium (CA), Blood + Blood: Chloride (CL), Blood + Blood: Cholesterol (CHOL…): 45 mg/kg-day
- LEL (Rattus norvegicus [1]; [12]): 15 mg/kg-day
- NEL (Rattus norvegicus [1]; [12]): 5 mg/kg-day
- NEL (Rattus norvegicus [1]; developmental, duration: 34 days, parental, M/F, Wistar, generation: F1, F1: Nipples: Nipple Retention + F1: Thyroid: Thyroid Gland Weight, Absolute + F1: Thyroid: Thyroid Gland Weight, Relative + F1: Thyroid: …): 45 mg/kg-day
- NEL (Rattus norvegicus [1]; reproduction developmental, duration: 90 days, oral, gavage, M, Wistar, Whole Body: Days of Cohabitation + Whole Body: Fertility Index + Whole Body: Percent Mating): 45 mg/kg-day
- NEL (Rattus norvegicus [1]; reproduction developmental, duration: 123 days, oral, gavage, F, Wistar, Ovary: Ovary Histopathology + Ovary: Ovary Weight, Absolute + Uterus: Estrous Cycle, Length + Uterus: Post-Implantation Loss + Uterus: Pre-…): 45 mg/kg-day
- NEL (Rattus norvegicus [1]; reproduction developmental, duration: 123 days, oral, gavage, F, Wistar, generation: P0, P0: Uterus: Abortions + P0: Uterus: Resorptions, Mean/Litter + P0: Vagina: Uterus (With Cervix) Weight, Absolute + P0: Vagina: Vagina …): 45 mg/kg-day
- NEL (Rattus norvegicus [1]; subchronic, duration: 90 days, oral, gavage, M, Wistar, Blood: Albumin/Globulin (A/G) Ratio + Blood: Basophils + Blood: Calcium (CA), Blood + Blood: Chloride (CL), Blood + Blood: Cholesterol (CHOL…): 45 mg/kg-day
- LEL (Rattus norvegicus [1]; subchronic, duration: 90 days, oral, gavage, M, Wistar, Kidney: Kidney Weight, Absolute + Kidney: Kidney Weight, Relative + Liver: Albumin (A), Blood + Whole Body: Total Protein (TP), Blood): 5 mg/kg-day
SMILES: O=S(=O)(O)CCC(F)(F)C(F)(F)C(F)(F)C(F)(F)C(F)(F)C(F)(F)F [6:2 Fluorotelomer sulfonic acid]
- LEL (Rattus norvegicus [1]; [13]): 45 mg/kg-day
- NEL (Rattus norvegicus [1]; [13]): 15 mg/kg-day
- NOAEL (Rattus norvegicus [1]; developmental, duration: 34 days, parental, M/F, Crl:WI (Han), generation: F1, F1: Developmental: Nipples: Nipple Retention + F1: Developmental: Thyroid: Thyroid Gland Weight, Absolute + F1: Developmental: Thyroid: …): 45 mg/kg-day
- LOAEL (Rattus norvegicus [1]; [14]): 45 mg/kg-day
- NOAEL (Rattus norvegicus [1]; [14]): 15 mg/kg-day
- NOAEL (Rattus norvegicus [1]; reproduction developmental, duration: 90 days, oral, gavage, M, Crl:WI (Han), generation: P0, P0: Reproductive: Whole Body: Days of Cohabitation + P0: Reproductive: Whole Body: Fertility Index + P0: Reproductive: Whole Body: Percent …): 45 mg/kg-day
- NOAEL (Rattus norvegicus [1]; reproduction developmental, duration: 123 days, oral, gavage, F, Crl:WI (Han), generation: P0, P0: Developmental: Uterus: Abortions + P0: Developmental: Uterus: Litter Loss + P0: Reproductive: Vagina: Uterus (With Cervix) Weight, …): 45 mg/kg-day
- NOAEL (Rattus norvegicus [1]; reproduction developmental, duration: 123 days, oral, gavage, F, Crl:WI (Han), generation: P0, P0: Developmental: Uterus: Post-Implantation Loss + P0: Developmental: Uterus: Pre-Implantation Loss + P0: Reproductive: Ovary: Ovary …): 45 mg/kg-day
- LOAEL (Rattus norvegicus [1]; [15]): 45 mg/kg-day
- NOAEL (Rattus norvegicus [1]; [15]): 15 mg/kg-day
- LEL (Rattus norvegicus [1]; [16]): 45 mg/kg-day
- NEL (Rattus norvegicus [1]; [16]): 15 mg/kg-day

SMILES: COC(=O)CCCC(=O)OC [Dimethyl glutarate]
- NOAEL (Rattus norvegicus [2]): 300 mg/kg-day
